Results reported in PubChem BioAssay AID256 (DTP/NCI, 2004).
Several values for one entry are separate records, joined by “and”; a condition that tells them apart may be missing. Equal values may be shown once. Toxic doses and inconclusive results are not listed.

Test system: CD2F1 mice, L1210 leukemia ip, survival T/C
Test: NCI In Vivo Anticancer Drug Screen. Data for tumor model L1210 Leukemia (intraperitoneal) in CD2F1 (CDF1) mice
Details: higher = longer survival
Summary of the method: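 Activity against a transplanted murine tumor was judged by comparing the compound group with a vehicle group. The outcome in the treated animals was divided by that in the controls.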

[1] = endpoint: mean survival time, dose: 100.0 mg/kg/injection, schedule: Q04DX003 (ip), vehicle: saline with Tween-80

Compound: COc1cc(NCc2ccc3nc(N)nc(N)c3c2C)cc(OC)c1OC
- T/C (endpoint: mean survival time, dose: 0.62 mg/kg/injection, schedule: Q01DX009 (ip), vehicle: sodium bicarbonate): 102 % of control
- T/C (endpoint: mean survival time, dose: 1.25 mg/kg/injection, schedule: Q01DX009 (ip), vehicle: sodium bicarbonate): 102 % of control and 106 % of control
- T/C (endpoint: mean survival time, dose: 1.87 mg/kg/injection, schedule: Q04DX003 (ip), vehicle: sodium bicarbonate): 106 % of control
- T/C (endpoint: mean survival time, dose: 2.5 mg/kg/injection, schedule: Q01DX009 (ip), vehicle: sodium bicarbonate): 110 % of control and 112 % of control
- T/C (endpoint: mean survival time, dose: 3.11 mg/kg/injection, schedule: Q01DX009 (ip), vehicle: other): 118 % of control
- T/C (endpoint: mean survival time, dose: 3.75 mg/kg/injection, schedule: Q04DX003 (ip), vehicle: sodium bicarbonate): 96 % of control
- T/C (endpoint: mean survival time, dose: 5.0 mg/kg/injection, schedule: Q01DX009 (ip), vehicle: sodium bicarbonate): 121 % of control and 110 % of control
- T/C (endpoint: mean survival time, dose: 5.18 mg/kg/injection, schedule: Q01DX009 (ip), vehicle: other): 121 % of control
- T/C (endpoint: mean survival time, dose: 5.27 mg/kg/injection, schedule: Q01DX009 (ip), vehicle: Klucel (hydroxypropylcellulose) (HPC)): 122 % of control
- T/C (endpoint: mean survival time, dose: 7.05 mg/kg/injection, schedule: Q01DX009 (ip), vehicle: water): 117 % of control
- T/C (endpoint: mean survival time, dose: 7.5 mg/kg/injection, schedule: Q04DX003 (ip), vehicle: sodium bicarbonate): 110 % of control
- T/C (endpoint: mean survival time, dose: 10.5 mg/kg/injection, schedule: Q01DX009 (ip), vehicle: water): 123 % of control
- T/C (endpoint: mean survival time, dose: 15.0 mg/kg/injection, schedule: Q04DX003 (ip), vehicle: sodium bicarbonate): 112 % of control
- T/C (endpoint: mean survival time, dose: 17.8 mg/kg/injection, schedule: Q01DX009 (ip), vehicle: Klucel (hydroxypropylcellulose) (HPC)): 174 % of control
- T/C (endpoint: mean survival time, dose: 20.0 mg/kg/injection, schedule: Q01DX009 (ip), vehicle: sodium bicarbonate): 156 % of control and 160 % of control
- T/C (endpoint: mean survival time, dose: 24.0 mg/kg/injection, schedule: Q01DX009 (ip), vehicle: other): 152 % of control
- T/C (endpoint: mean survival time, dose: 26.7 mg/kg/injection, schedule: Q01DX009 (ip), vehicle: Klucel (hydroxypropylcellulose) (HPC)): 191 % of control
- T/C (endpoint: mean survival time, dose: 30.0 mg/kg/injection, schedule: Q04DX003 (ip), vehicle: sodium bicarbonate): 114 % of control
- T/C (endpoint: mean survival time, dose: 40.0 mg/kg/injection, schedule: Q01DX009 (ip), vehicle: Klucel (hydroxypropylcellulose) (HPC)): 216 % of control
- T/C (endpoint: mean survival time, dose: 40.0 mg/kg/injection, schedule: Q01DX009 (ip), vehicle: other): 167 % of control
- T/C (endpoint: mean survival time, dose: 40.0 mg/kg/injection, schedule: Q01DX009 (ip), vehicle: sodium bicarbonate): 110 % of control
- T/C (endpoint: mean survival time, dose: 60.0 mg/kg/injection, schedule: Q01DX009 (ip), vehicle: Klucel (hydroxypropylcellulose) (HPC)): 122 % of control
- T/C (endpoint: mean survival time, dose: 80.0 mg/kg/injection, schedule: Q01DX009 (ip), vehicle: water): 151 % of control
- T/C (endpoint: mean survival time, dose: 90.0 mg/kg/injection, schedule: Q01DX009 (ip), vehicle: Klucel (hydroxypropylcellulose) (HPC)): 116 % of control
- T/C (endpoint: median survival time, dose: 2.5 mg/kg/injection, schedule: Q01DX009 (ip), vehicle: sodium bicarbonate): 109 % of control
- T/C (endpoint: median survival time, dose: 5.0 mg/kg/injection, schedule: Q01DX009 (ip), vehicle: Klucel (hydroxypropylcellulose) (HPC)): 119 % of control
- T/C (endpoint: median survival time, dose: 5.0 mg/kg/injection, schedule: Q01DX009 (ip), vehicle: sodium bicarbonate): 117 % of control and 124 % of control
- T/C (endpoint: median survival time, dose: 6.25 mg/kg/injection, schedule: Q01DX009 (ip), vehicle: water): 124 % of control
- T/C (endpoint: median survival time, dose: 7.5 mg/kg/injection, schedule: Q01DX005 (ip), vehicle: Klucel (hydroxypropylcellulose) (HPC)): 150 % of control
- T/C (endpoint: median survival time, dose: 10.0 mg/kg/injection, schedule: Q01DX009 (ip), vehicle: Klucel (hydroxypropylcellulose) (HPC)): 151 % of control
- T/C (endpoint: median survival time, dose: 15.0 mg/kg/injection, schedule: Q01DX005 (ip), vehicle: Klucel (hydroxypropylcellulose) (HPC)): 167 % of control
- T/C (endpoint: median survival time, dose: 18.0 mg/kg/injection, schedule: Q01DX009 (ip), vehicle: distilled water + Tween-80): 153 % of control
- T/C (endpoint: median survival time, dose: 20.0 mg/kg/injection, schedule: Q01DX009 (ip), vehicle: Klucel (hydroxypropylcellulose) (HPC)): 172 % of control
- T/C (endpoint: median survival time, dose: 20.0 mg/kg/injection, schedule: Q01DX009 (ip), vehicle: sodium bicarbonate): 152 % of control and 157 % of control
- T/C (endpoint: median survival time, dose: 25.0 mg/kg/injection, schedule: Q01DX009 (ip), vehicle: water): 157 % of control
- T/C (endpoint: median survival time, dose: 27.0 mg/kg/injection, schedule: Q01DX009 (ip), vehicle: distilled water + Tween-80): 165 % of control
- T/C (endpoint: median survival time, dose: 30.0 mg/kg/injection, schedule: Q01DX005 (ip), vehicle: Klucel (hydroxypropylcellulose) (HPC)): 166 % of control and 175 % of control
- T/C (endpoint: median survival time, dose: 40.0 mg/kg/injection, schedule: Q01DX009 (ip), vehicle: distilled water + Tween-80): 158 % of control and 168 % of control
- T/C (endpoint: median survival time, dose: 40.0 mg/kg/injection, schedule: Q01DX009 (ip), vehicle: sodium bicarbonate): 168 % of control and 181 % of control
- T/C (endpoint: median survival time, dose: 44.0 mg/kg/injection, schedule: Q01DX009 (ip), vehicle: water): 154 % of control
- T/C (endpoint: median survival time, dose: 50.0 mg/kg/injection, schedule: Q01DX009 (ip), vehicle: water): 157 % of control and 165 % of control
- T/C (endpoint: median survival time, dose: 60.0 mg/kg/injection, schedule: Q01DX005 (ip), vehicle: Klucel (hydroxypropylcellulose) (HPC)): 184 % of control and 185 % of control
- T/C (endpoint: median survival time, dose: 60.0 mg/kg/injection, schedule: Q01DX009 (ip), vehicle: distilled water + Tween-80): 160 % of control and 182 % of control
- T/C (endpoint: median survival time, dose: 80.0 mg/kg/injection, schedule: Q01DX009 (ip), vehicle: Klucel (hydroxypropylcellulose) (HPC)): 112 % of control
- T/C (endpoint: median survival time, dose: 90.0 mg/kg/injection, schedule: Q01DX009 (ip), vehicle: distilled water + Tween-80): 118 % of control
- T/C (endpoint: median survival time, dose: 100.0 mg/kg/injection, schedule: Q01DX009 (ip), vehicle: water): 173 % of control and 184 % of control
- T/C (endpoint: median survival time, dose: 120.0 mg/kg/injection, schedule: Q01DX005 (ip), vehicle: Klucel (hydroxypropylcellulose) (HPC)): 236 % of control

Compound: C=C(Br)CNC(=O)OC
- T/C (endpoint: mean survival time, dose: 12.5 mg/kg/injection, schedule: Q01DX009 (ip), vehicle: saline): 102 % of control
- T/C (endpoint: mean survival time, dose: 25.0 mg/kg/injection, schedule: Q01DX009 (ip), vehicle: saline): 104 % of control
- T/C (endpoint: mean survival time, dose: 50.0 mg/kg/injection, schedule: Q01DX009 (ip), vehicle: saline): 112 % of control
- T/C [1]: 96 % of control

Compound: O=P(O)(O)CP(=O)(O)O.[NH-]CC[NH-].[NH-]CC[NH-].[Pt+2].[Pt+2]
- T/C (endpoint: mean survival time, dose: 3.13 mg/kg/injection, schedule: Q04DX003 (ip), vehicle: distilled water + Tween-80): 119 % of control
- T/C (endpoint: mean survival time, dose: 6.25 mg/kg/injection, schedule: Q04DX003 (ip), vehicle: distilled water + Tween-80): 92 % of control
- T/C (endpoint: mean survival time, dose: 12.5 mg/kg/injection, schedule: Q04DX003 (ip), vehicle: distilled water + Tween-80): 103 % of control
- T/C (endpoint: mean survival time, dose: 25.0 mg/kg/injection, schedule: Q04DX003 (ip), vehicle: distilled water + Tween-80): 109 % of control
- T/C (endpoint: mean survival time, dose: 50.0 mg/kg/injection, schedule: Q04DX003 (ip), vehicle: distilled water + Tween-80): 103 % of control
- T/C (endpoint: mean survival time, dose: 100.0 mg/kg/injection, schedule: Q04DX003 (ip), vehicle: distilled water + Tween-80): 109 % of control
- T/C (endpoint: mean survival time, dose: 200.0 mg/kg/injection, schedule: Q04DX003 (ip), vehicle: distilled water + Tween-80): 90 % of control

Compound: CCCC1CC[N-]CC1.CCCC1CC[N-]CC1.CCCC1CC[N-]CC1.CCCC1CC[N-]CC1.[Cl][Rh][Cl]
- T/C (endpoint: mean survival time, dose: 25.0 mg/kg/injection, schedule: Q04DX003 (ip), vehicle: saline with Tween-80): 90 % of control

Compound: O=c1scc(-c2ccc(C(F)(F)F)cc2)s1
- T/C (endpoint: mean survival time, dose: 12.5 mg/kg/injection, schedule: Q01DX009 (ip), vehicle: Klucel (hydroxypropylcellulose) (HPC)): 100 % of control
- T/C (endpoint: mean survival time, dose: 25.0 mg/kg/injection, schedule: Q01DX009 (ip), vehicle: Klucel (hydroxypropylcellulose) (HPC)): 91 % of control

Compound: Cc1cc2nc(N)n(C3OC(CO)C(O)C3O)c2cc1C (configuration not stated)
- T/C (endpoint: mean survival time, dose: 75.0 mg/kg/injection, schedule: Q01DX001 (ip), vehicle: saline): 108 % of control
- T/C (endpoint: mean survival time, dose: 150.0 mg/kg/injection, schedule: Q01DX001 (ip), vehicle: saline): 105 % of control
- T/C (endpoint: mean survival time, dose: 300.0 mg/kg/injection, schedule: Q01DX001 (ip), vehicle: saline): 103 % of control

Compound: CC(OC(=O)c1ccccc1)c1ccccc1 (configuration not stated)
- T/C (endpoint: mean survival time, dose: 100.0 mg/kg/injection, schedule: Q01DX009 (ip), vehicle: saline with Tween-80): 95 % of control
- T/C [1]: 96 % of control
- T/C (endpoint: mean survival time, dose: 200.0 mg/kg/injection, schedule: Q01DX009 (ip), vehicle: saline with Tween-80): 105 % of control
- T/C (endpoint: mean survival time, dose: 200.0 mg/kg/injection, schedule: Q04DX003 (ip), vehicle: saline with Tween-80): 105 % of control
- T/C (endpoint: mean survival time, dose: 400.0 mg/kg/injection, schedule: Q01DX009 (ip), vehicle: saline with Tween-80): 112 % of control
- T/C (endpoint: mean survival time, dose: 400.0 mg/kg/injection, schedule: Q04DX003 (ip), vehicle: saline with Tween-80): 94 % of control

Compound: O=[N+]([O-])c1cccn2nc(C3OC(CO)C(O)C3O)nc12 (configuration not stated)
- T/C (endpoint: mean survival time, dose: 12.5 mg/kg/injection, schedule: Q01DX005 (ip), vehicle: water): 96 % of control
- T/C (endpoint: mean survival time, dose: 25.0 mg/kg/injection, schedule: Q01DX005 (ip), vehicle: water): 97 % of control
- T/C (endpoint: mean survival time, dose: 50.0 mg/kg/injection, schedule: Q01DX005 (ip), vehicle: water): 94 % of control
- T/C (endpoint: mean survival time, dose: 100.0 mg/kg/injection, schedule: Q01DX005 (ip), vehicle: water): 100 % of control

Compound: c1coc(NC2CCCCC2)n1
- T/C (endpoint: mean survival time, dose: 100.0 mg/kg/injection, schedule: Q01DX001 (ip), vehicle: saline with Tween-80): 102 % of control
- T/C (endpoint: mean survival time, dose: 200.0 mg/kg/injection, schedule: Q01DX001 (ip), vehicle: saline with Tween-80): 102 % of control
- T/C (endpoint: mean survival time, dose: 400.0 mg/kg/injection, schedule: Q01DX001 (ip), vehicle: saline with Tween-80): 102 % of control
